For one experiment, the target named is T1, PAF receptor (Oryctolagus cuniculus, UniProt G1TEI7).
T1 construct: centrifuged at 800 rpm for 10-15 minutes at room temperature to recover the platelet rich plasma (PRP); from tissue; host or cells: platelets in platelet rich plasma from blood of male New Zealand White rabbits
Briefly: Inhibition of PAF induced platelet aggregation in rabbit platelet rich plasma. Format: cell-based, rabbit (New Zealand White). Conditions: for inhibition at 10 µM: dose .00001 M. The method, then:
Test compounds are evaluated as PAF receptor antagonists in vitro by measuring inhibition of PAF (platelet activating factor) induced platelet aggregation. Platelet aggregation is measured by a modification of the method described in […], et. al., J. Med. Chem., 27 1174, 1984. […] All syringes and pipets are plastic. The blood is gently mixed and immediately centrifuged at 800 rpm for 10-15 minutes at room temperature to recover the platelet rich plasma (PRP). Platelet poor plasma (PPP) is prepared by centrifuging PRP at 2800 rpm for 10 minutes at room temperature. Dilutions (1:3000) of PRP in Isotone diluent are made and platelet counts are determined on a Coulter Thrombocounter which is standardized with platelet reference standards (Interscience Platelet Control, Portland, Oreg.). PRP platelet counts are adjusted to approximately 400,000-500,000 platelets/μl by the addition of PPP. L-PAF (Platelet Activating Factor) is obtained from Calbiochem. […] All solutions are made up in plastic tubes, stored on ice and protected from heat and light. Solutions are prepared fresh or frozen at -20° C. and used within 48 hours. Incubation mixtures consisted of 400 μl PRP, 50 μl of saline diluent or test compound and 50 μl of PAF agonist. More specifically, 400μl of PRP is stabilized in a cuvette for 1-2 minutes at 37° C. in the aggregometer to achieve a stable baseline, then 50 μl of saline or test compound is added and incubated for 5 minutes before addition of the challenge concentration of pAF. A submaximal concentration is determined from the dose response curve for PAF for that experiment. In general, the challenge concentration is 5E-8 or 1E-7M. Aggregation is monitored for 5 minutes. Samples containing test compound or diluent are run simultaneously for comparison. Test compounds are initially evaluated at a screening concentration of 1E-5M. […] The recording equipment consists of a dual channel Chronolog aggregometer connected to a dual channel 10MV full scale deflection Omniscribe chart recorder (Houston Instruments). The chart recorder is calibrated daily with the use of a suspension of Bio-Rad latex beads (S-X 12 400 mesh) which has a density slightly greater than rabbit PRP. […] These limits defined a full scale deflection. The aggregation traces are analyzed by a digitizing method (C. Kohler and B. Zoltan, J. Pharm. Methods, 12, 113, 1984) with x, y coordinate data stored in a computer file. A suitable program computes parameters of interest such as the magnitude of aggregation.

In the next experiment the test system is PAF. Briefly: PAF induced lethality in mice. Format: in vivo. Conditions: PAF 150 μg/kg IV. The method, then: PAF given I.V. to mice causes an immediate hypotensive shock leading to death in 1 hour or less. […] Animals alive after 2 hours are counted and the activity of test compounds expressed as % survival corrected for any control (saline treated) animals which survived the PAF challenge.

Experiment [1] concerns LPS endotoxin. Briefly: Low dose, chronic mouse endotoxemia (LPS endotoxin). Format: in vivo, Male Balb/c mice. Conditions: day 6, LPS 20 mg/kg i.p. From the text: (§1) Endotoxin administration produces a shock-like state characterized by vascular permeability changes, hypotension, neutropenia, thrombocytopenia,multiple organ damage and death. The major mediators released after endotoxin injection are TNF (tumor necrosis factor), PAF (platelet activating factor) and […] (interleukin I). PAF administration mimics the signs and symptoms of endotoxin induced shock and death and endotoxin also induces the release of PAF. Therefore, the effects of endotoxin should be blocked with a PAF antagonist.
(§2) Male Balb/c mice (approximately 20 g) are obtained from Charles River Laboratories and used after a one-two week acclimation period. Animals are given (ip) test compound dissolved in saline or water (sonicated and heated) at different time intervals prior to and after the ip injection of endotoxin (usually 2 hours before LPS endotoxin, and 3-4 hours after). Sigma E. Coli endotoxin, 0111:B4, phenol extraction, catalog #L2630 is used for these studies.
For the chronic endotoxin shock model, a lower dose of endotoxin is administered (generally 15 to 20 mg/kg i.p). This dose gives an LD80 in two to four days following LPS administration. Test compounds are given 2 hours before LPS and 3-4 hours after on the first day, followed by 3 or 4 consecutive days of BID dosing. The number of survivors in each group is recorded each day for a period of 5 to 7 days.
All mice challenged with LPS endotoxin = 20 mg/kg i.p.
CL test cpd given 2 hours before and 3-4 hours after LPS challenge on day
0, followed by BID dosing for 3-4 days.

Experiment [2] deals with LPS endotoxin. Put plainly: High dose acute mouse endotoxemia (LPS endotoxin induced mortality). Conditions: for % Survival / survivors/total: i.p., LPS 50 mg/kg ip. Format: in vivo, Male Balb/c mice.
Text: as §1, §2
This LD value is approximately 50 mg/kg i.p. The number of survivors in each group (control or treated with test compound) is recorded after 24, 48 or 72 hours and the treated groups (receiving test compound and endotoxin) are compared with the untreated, control group (receiving endotoxin only) or saline control (receiving saline and endotoxin).
LPS Endotoxin challenge = 50 mg/kg ip
Test cpd given 2 hrs. before and 3-4 hrs. after LPS challenge on day 0,
followed by BID dosing for 3-4 days.

The mark [3] stands for this setting: PAF challenge 5.0000E-08 M, read-out: % INH of PAF induced platelet aggregation.
[4] abbreviates: PAF challenge 5E-9 M, read-out: % INH of PAF induced platelet aggregation.

pIC50: −log10 of the molar value. Values joined by “and” are separate entries in the source; they are usually repeats but may differ in a detail not shown here. Equal values may be shown once. Read-outs that look alike come from different tables or passages of the source.

T1 sequence (G1TEI7 1-342): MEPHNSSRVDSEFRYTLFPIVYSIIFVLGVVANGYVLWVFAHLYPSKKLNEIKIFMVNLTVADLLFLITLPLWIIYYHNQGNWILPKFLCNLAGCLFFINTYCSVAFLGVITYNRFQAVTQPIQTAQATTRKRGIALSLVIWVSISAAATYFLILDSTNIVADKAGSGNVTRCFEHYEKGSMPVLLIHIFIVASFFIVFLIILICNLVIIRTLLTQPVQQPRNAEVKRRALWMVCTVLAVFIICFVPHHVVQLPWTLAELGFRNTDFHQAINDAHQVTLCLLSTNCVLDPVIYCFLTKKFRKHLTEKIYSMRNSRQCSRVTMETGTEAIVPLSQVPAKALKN

In general, pIC50 refers to the IC50 on a negative log10 scale, so that one unit is a factor of ten. A high value points to a small IC50. In turn, `CCCCCCCCCCCCCCOc1ccc(CC(=O)Nc2cccc(C[n+]3ccsc3)c2)cc1.[Br-]` [3-[[3-[[[4-(tetradecyloxy)phenyl]acetyl]amino]phenyl]methyl]thiazolium bromide] showed a pIC50 at PAF receptor (PAF challenge 5E-9 M) of 6.92. In addition, the inhibition at 2.5 µM on PAF receptor (dose .0000025 M, PAF challenge 5.0000E-08 M, read-out: % INH of PAF induced platelet aggregation) was found to be 97%. The inhibition at 10 µM amounted to 100% on PAF receptor (setting [3]) and 98% at PAF receptor (setting [4]). For the same compound, the “% Survival” value with PAF (40 mg/kg P.O.) is listed as 40%; in the experiment on LPS endotoxin [1] (dose 10 mg/kg i.p.) it was 63%; with LPS endotoxin [1] (dose 20 mg/kg i.p.) it was 40%.

`CCCCCCCCCCCCCCOc1cccc(CC(=O)Nc2cccc(C[n+]3csc(C)c3)c2)c1.[Br-]` [5-methyl-3-[[3-[[[3-(tetradecyloxy)phenyl]acetyl]amino]phenyl]methyl]thiazolium bromide]: the pIC50 was 6.31 and 5.90 against PAF receptor (PAF challenge 5.0000E-08 M); 5.97 at PAF receptor (PAF challenge 5E-9 M). On PAF receptor (setting [4]), the inhibition at 10 µM came out at 100%. Further, the “% Survival” value in the experiment on PAF (5 mg/kg P.O.) worked out at 40%; in the experiment on PAF (20 mg/kg P.O.), 59%; in the experiment with LPS endotoxin [2] (day 0), 100%; in the experiment with LPS endotoxin [2] (day 1), 40%; in the experiment on LPS endotoxin [2] (day 2) it was 13%; with LPS endotoxin [2] (day 3), 10%. Moreover, the figures for the “% Survival” value in the experiment on LPS endotoxin [2] (day 4) and with LPS endotoxin [1] (dose 10 mg/kg i.p.) were 10% and 43%, respectively. Moreover, the survivors/total in the experiment on LPS endotoxin [2] (day 0) is 30/30; with LPS endotoxin [2] (day 1), 12/30; with LPS endotoxin [2] (day 2), 4/30; in the experiment on LPS endotoxin [2] (day 3), 3/30; with LPS endotoxin [2] (day 4), 3/30. Further, the “activity when administered ip prior to a lethal ip injection of endotoxin” value in the experiment with LPS endotoxin [2] (ip, in words) was “some activity”.

Consider `CCCCCCCCCCCCCCOc1ccc(CN(C(=O)NC)c2cccc(C[n+]3csc(C)c3)c2)cc1.[Br-]` [5-methyl-3-[[3-[[(methylamino)carbonyl]-[[4-(tetradecyloxy)phenyl]methyl]amino]phenyl]methyl]-thiazolium bromide], for which the pIC50 against PAF receptor (PAF challenge 5.0000E-08 M) was 6.34; on PAF receptor (PAF challenge .0000001 M) it was 5.96. For the same compound, the inhibition at 10 µM at PAF receptor (setting [3]) worked out at 90%; on PAF receptor (PAF challenge .0000001 M, read-out: % INH of PAF induced platelet aggregation), 95%. In addition, the “% Survival” value with LPS endotoxin [1] (dose 10 mg/kg i.p.) turned out to be 46%; in the experiment with LPS endotoxin [1] (dose 20 mg/kg i.p.), 20%.

For the origin of these results see patent US5225425A, “Bis-aryl amide antagonists of platelet activating factor” (American Cyanamid Company, priority 1992, dated 1993).
